Here are results for 50 compounds from article PMC6433232, “Targeting mitochondria in cancer therapy could provide a basis for the selective anti-cancer activity” (PLoS ONE, 2019).

In data set [1] the test system is primary acute myeloid leukemia (AML) cells obtained from patients. Description: Kinase inhibitor library screening with and without NSC130362, primary AML cells. It counts as cell-based, Human.
The subject of data set [2] is pancreatic cancer MIA PaCa-2 cells. Description: cells. Particulars: for EC50: Homo sapiens, MIA PaCa-2, read-out: EC50, μM MIA PaCa-2. Here is the method:
Fig 1 A, Structure of NSC130362. B, Dose response curve of NSC130362 in MIA PaCa-2 cells. Cells were pre-incubated with NSC130362 for 2 h followed by addition of ATO (5 μM) and incubation for an additional 24 h. At the end of the treatment, the ratio of dead cells was determined by a CellTiterGlo reagent.

Data set [3] concerns human primary hepatocytes. Description: cells. Particulars: Hepatocyte, read-out: EC50, μM Hepatocytes.
From the text: (§1) We selected hepatocytes as normal cells because hepatocytes are mediate toxicity to multiple drugs and are used as a standard to assess toxicity of drugs in vitro [28]. […] For comparison with the standard of care, doxorubicin was also included in this analysis.
Data set [4] concerns human primary hepatocytes. Particulars: for times more toxic toward hepatocytes than compound 2: versus compound 2; for increase in toxicity to hepatocytes: versus compound 17.
From the text: as §1
[5] abbreviates: ratio of EC50 for inhibitor to EC50 for inhibitor/NSC130362 combination, NSC130362 10 μM, Screen N 2.
Setting [6] is: ratio of EC50 for inhibitor to EC50 for inhibitor/NSC130362 combination, NSC130362 10 μM, Screen N 1.
Where [7] appears, read: ratio of EC50 for inhibitor to EC50 for inhibitor/NSC130362 combination, NSC130362 10 μM, Screen N 3.

Like-named read-outs stand apart in the source and are kept apart here.

Regarding `CCCCNc1ncc2c(-c3ccc(CN4CCN(C)CC4)cc3)cn(C3CCC(O)CC3)c2n1` (centres unmarked) [UNC 2025A], the “EC50 decrease, fold (Screen N 2)” value in data set [1] (setting [5]) amounted to 1.0 fold.
Take `O=c1ncn2nc(Sc3ccc(F)cc3F)ccc2c1-c1c(Cl)cccc1Cl` [VX-745]: the “EC50 decrease, fold (Screen N 1)” value in data set [1] (setting [6]) is on record as 2.9 fold. Moreover, the “EC50 decrease, fold (Screen N 2)” value in data set [1] (setting [5]) was 1.0 fold. In addition, in data set [1] (setting [7]), the “EC50 decrease, fold (Screen N 3)” value is listed as 0.0543 fold.
Consider `COc1cc2/c(=N/c3ccc(Br)cc3F)nc[nH]c2cc1OCC1CCN(C)CC1` [Vandetanib (ZD6474)], for which the “EC50 decrease, fold (Screen N 1)” value in data set [1] (setting [6]) was determined as 0.5 fold. Moreover, in data set [1] (setting [5]), the “EC50 decrease, fold (Screen N 2)” value is 1.0 fold.
As for `CCS(=O)(=O)O.COC(=O)c1ccc2c(c1)NC(=O)/C2=C(\Nc1ccc(N(C)C(=O)CN2CCN(C)CC2)cc1)c1ccccc1` [Vargetef], the “EC50 decrease, fold (Screen N 1)” value in data set [1] (setting [6]) is on record as 0.229 fold. Further, the “EC50 decrease, fold (Screen N 2)” value in data set [1] (setting [5]) came to 1.0 fold. Besides, in data set [1] (setting [7]), the “EC50 decrease, fold (Screen N 3)” value is listed as 0.14 fold.
For `Clc1ccc(Nc2nnc(Cc3ccncc3)c3ccccc23)cc1` [Vatalanib (PTK787)], in data set [1] (setting [6]), the “EC50 decrease, fold (Screen N 1)” value turned out to be 0.245 fold. In addition, the “EC50 decrease, fold (Screen N 2)” value in data set [1] (setting [5]) is listed as 1.0 fold. For the same compound, the “EC50 decrease, fold (Screen N 3)” value in data set [1] (setting [7]) came out at 0.7 fold.
For `CC(C)C[C@H](NC(=O)[C@H](Cc1ccccc1)NC(=O)c1cnccn1)B(O)O` [Velcade], in data set [1], the “EC50 decrease, fold (Screen N 1)” value is reported as 0.457 fold; the “EC50 decrease, fold (Screen N 2)” value is 0.468 fold; the “EC50 decrease, fold (Screen N 3)” value was 0.0645 fold.
As to `CCCS(=O)(=O)Nc1ccc(F)c(C(=O)c2c[nH]c3ncc(-c4ccc(Cl)cc4)cc23)c1F` [Vemurafenib (PLX-4032)], the “EC50 decrease, fold (Screen N 1)” value in data set [1] (setting [6]) is 1.0 fold. Also, in data set [1] (setting [5]), the “EC50 decrease, fold (Screen N 2)” value came out at 1.0 fold.
`CS(=O)(=O)c1ccc(C(=O)Nc2ccc(Cl)c(-c3ccccn3)c2)c(Cl)c1` [Vismodegib (GDC-0449)]: in data set [1] (setting [6]), the “EC50 decrease, fold (Screen N 1)” value was 1.0 fold. The “EC50 decrease, fold (Screen N 2)” value in data set [1] (setting [5]) amounted to 1.0 fold. The “EC50 decrease, fold (Screen N 3)” value in data set [1] (setting [7]) was determined as 1.0 fold.
As for `CC[C@@H]1C(=O)N(C)c2cnc(Nc3ccc(C(=O)N[C@H]4CC[C@H](N5CCN(CC6CC6)CC5)CC4)cc3OC)nc2N1C(C)C` [Volasertib (BI-6727)], the “EC50 decrease, fold (Screen N 1)” value in data set [1] (setting [6]) amounted to 0.2 fold. Besides, in data set [1] (setting [5]), the “EC50 decrease, fold (Screen N 2)” value turned out to be 0.4 fold. The “EC50 decrease, fold (Screen N 3)” value in data set [1] (setting [7]) is 68.5 fold.
On the same counts, the results for `Oc1nc(-c2ccc(C(F)(F)F)cc2)nc2c1CSCC2` [XAV-939] are 6.5 fold, 1.0 fold and 1.0 fold.
`COCCn1c2c([n+](Cc3cnccn3)c1C)C(=O)c1ccccc1C2=O` [YM-155]: the “EC50 decrease, fold (Screen N 1)” value in data set [1] (setting [6]) is recorded as 10.9 fold. For the same compound, in data set [1] (setting [5]), the “EC50 decrease, fold (Screen N 2)” value is 4.4 fold. In addition, the “EC50 decrease, fold (Screen N 3)” value in data set [1] (setting [7]) stood at 1.0 fold.
With `CNC1=C(Cl)C(=O)c2ccccc2C1=O` [compound 2], the EC50 came to 38.6 µM in data set [2] and 41.1 µM in data set [3].
For `CCCNC1=C(Cl)C(=O)c2ccccc2C1=O` [compound 4], the concentration for a half-maximal effect (EC50) in data set [2] and in data set [3] was 90 µM throughout. The “reduction of anti-cancer activity” value in data set [2] (versus compound 3) is “more than 3 fold”.
As for `CCCCNC1=C(Cl)C(=O)c2ccccc2C1=O` [compound 5], the EC50 in data set [2] and in data set [3] was above 90 µM each time.
On to `CCCCCNC1=C(Cl)C(=O)c2ccccc2C1=O` [compound 6], for which the 50% effective concentration (EC50) in data set [2] and in data set [3] was above 90 µM in each case.
For `CCCCCCNC1=C(Cl)C(=O)c2ccccc2C1=O` [compound 7], the values for the EC50 in data set [2] and in data set [3] were 26.1 µM and above 90 µM, respectively.
As to `CCCCCCCCNC1=C(Cl)C(=O)c2ccccc2C1=O` [compound 9], the 50% effective concentration (EC50) in data set [2] and in data set [3] was above 90 µM each time.
Take `CC(C)NC1=C(Cl)C(=O)c2ccccc2C1=O` [compound 10]: the EC50 in data set [2] was 69 µM; in data set [3], above 90 µM.
On the same counts, the results for `CCC(C)NC1=C(Cl)C(=O)c2ccccc2C1=O` (centres unmarked) [compound 11] are above 90 µM and above 90 µM.
As to `CC(C)CNC1=C(Cl)C(=O)c2ccccc2C1=O` [compound 12], the 50% effective concentration (EC50) in data set [2] and in data set [3] was above 90 µM throughout.
In the case of `CN(C)C1=C(Cl)C(=O)c2ccccc2C1=O` [compound 14, 2-chloro-3-(dimethylamino)-1,4-NQ], the figures for the EC50 in data set [2] and in data set [3] were 7.2 µM and 10 µM, respectively. Also, the “times more toxic toward hepatocytes than compound 2” value in data set [4] is on record as “approximately 2 times”.
In the same order, the values of `O=C1C(Cl)=C(N2CC2)C(=O)c2ccccc21` [compound 15, 2-chloro-3-(aziridin-1-yl)-1,4-NQ] are 2.3 µM, 2.6 µM and around 6.5 times.
On to `O=C1C(Cl)=C(NCCCO)C(=O)c2ccccc21` [compound 18], for which the half-maximal effective concentration (EC50) in data set [2] stood at 27.5 µM; in data set [3], 75.3 µM. Further, the “increase in toxicity to hepatocytes” value in data set [4] was “approximately 3 fold”.
With `CC(O)CNC1=C(Cl)C(=O)c2ccccc2C1=O` (centres unmarked) [compound 19], the concentration giving a half-maximal response (EC50) in data set [2] amounted to 24.9 µM. In addition, the “increase in toxicity to hepatocytes” value in data set [4] is “approximately 3 fold”.
`O=C1C(Cl)=C(NC(CO)(CO)CO)C(=O)c2ccccc21` [compound 20]: the results for the EC50 in data set [2] and in data set [3] were above 90 µM and 47.8 µM, respectively. In addition, in data set [2] (versus compound 13), the “loss in anti-cancer activity” value is “approximately 50 fold”. Further, the “loss in toxicity to hepatocytes” value in data set [4] (versus compound 13) was “approximately 2 fold”.
For the compound `CCOCCNC1=C(Cl)C(=O)c2ccccc2C1=O` [compound 24], the EC50 in data set [2] turned out to be 55.4 µM; in data set [3] it was 67.8 µM.
In the same order, the values of `CC(C)OCCCNC1=C(Cl)C(=O)c2ccccc2C1=O` [compound 25] are 82.1 µM and 60.8 µM.
In the same order, the values of `CC(=O)NC1=C(Cl)C(=O)c2ccccc2C1=O` [compound 29] are 5.4 µM and 9.7 µM.
In the same order, the values of `CCC(=O)NC1=C(Cl)C(=O)c2ccccc2C1=O` [compound 30] are 5.7 µM and 3.6 µM.
Regarding `O=C(CCl)NC1=C(Cl)C(=O)c2ccccc2C1=O` [compound 33], the concentration for a half-maximal effect (EC50) in data set [2] amounted to 7.9 µM; in data set [3], 25.4 µM. Further, the “decrease in anti-cancer activity” value in data set [2] (versus compound 29) is 2 fold.
`O=C(O)CNC1=C(Cl)C(=O)c2ccccc2C1=O` [compound 34]: the EC50 in data set [2] is 18.1 µM; in data set [3] it was 11.8 µM.
On the same counts, the results for `O=C1C(Cl)=C(NNC(=O)C(F)(F)F)C(=O)c2ccccc21` [compound 35] are 8 µM and 11.5 µM.
For the compound `O=C1C(Cl)=C(Nc2ccccn2)C(=O)c2ccccc21` [compound 37], the 50% effective concentration (EC50) in data set [2] stood at 5.2 µM; in data set [3], 6 µM.
In the same order, the values of `Cc1ccc(NC2=C(Cl)C(=O)c3ccccc3C2=O)cc1` [compound 41] are 2.5 µM and 8.4 µM.
In the same order, the values of `O=C1C(Cl)=C(Nc2ccc(F)cc2)C(=O)c2ccccc21` [compound 42] are 3.2 µM and 10 µM.
On to `O=C1C(Cl)=C(Nc2ccc(Cl)cc2)C(=O)c2ccccc21` [compound 43], for which the concentration for a half-maximal effect (EC50) in data set [2] and in data set [3] was above 90 µM throughout.
For `O=C1C(Cl)=C(Nc2cccc(Cl)c2)C(=O)c2ccccc21` [compound 44], the EC50 is 7 µM in data set [2] and 5.3 µM in data set [3].
Regarding `O=C1C(Cl)=C(Nc2ccc(O)cc2)C(=O)c2ccccc21` [compound 45], the half-maximal effective concentration (EC50) worked out at 2.5 µM in data set [2] and 2.6 µM in data set [3].
In the same order, the values of `[N-]=[N+]=NC1=C(Cl)C(=O)c2ccccc2C1=O` [compound 46] are 5.2 µM and 2.9 µM.
As for `CC1CCCC(C)N1C1=C(Cl)C(=O)c2ccccc2C1=O` (centres unmarked) [compound 47], the concentration for a half-maximal effect (EC50) in data set [2] came to 7 µM; in data set [3], 9 µM.
In the same order, the values of `CCNC1=CC(=O)c2ccccc2C1=O` [compound 49] are above 90 µM and above 90 µM.
In the same order, the values of `CCCNC1=CC(=O)c2ccccc2C1=O` [compound 50] are above 90 µM and above 90 µM.
In the same order, the values of `CCCCNC1=CC(=O)c2ccccc2C1=O` [compound 51] are above 90 µM and above 90 µM.
Turning to `CC(C)CNC1=CC(=O)c2ccccc2C1=O` [compound 52], the EC50 in data set [2] and in data set [3] was above 90 µM in each case.
Consider `O=C1C=CC(=O)c2ccccc21` [compound 56, 1,4-NQ, reference compound], for which the EC50 in data set [2] worked out at 9.2 µM; in data set [3] it was 1.8 µM.
In the same order, the values of `O=C1C=C(NCCNCCO)C(=O)c2ccccc21` [compound 57] are above 90 µM and 83.2 µM.
On the same counts, the results for `O=C1C=C(N2CCCCC2)C(=O)c2ccccc21` [compound 58] are 52 µM and 90 µM.
For `CCN(CC)C1=CC(=O)c2ccccc2C1=O` [compound 59], the concentration for a half-maximal effect (EC50) in data set [2] and in data set [3] was 90 µM throughout.
With JAK Inhibitor I, the “EC50 decrease, fold (Screen N 1)” value in data set [1] (setting [6]) came out at 0.847 fold. In data set [1] (setting [5]), the “EC50 decrease, fold (Screen N 2)” value amounted to 1.0 fold. The “EC50 decrease, fold (Screen N 3)” value in data set [1] (setting [7]) is listed as 46.2 fold.
As for NF-kB Activation Inhibitor, the “EC50 decrease, fold (Screen N 1)” value in data set [1] (setting [6]) is 11.2 fold. In addition, in data set [1] (setting [5]), the “EC50 decrease, fold (Screen N 2)” value stood at 1.0 fold. Besides, in data set [1] (setting [7]), the “EC50 decrease, fold (Screen N 3)” value is reported as 0.0602 fold.
